From ChEMBL document CHEMBL3217461, “Synthesis of tetrazoleisoxazoline hybrids as a new class of tubulin polymerization inhibitors” (Medchemcomm, 2012)
The source made the active and inactive calls. The calls are words filed in the database; no cut-off is given here.

Tests used:
A549 [1] = assay: Cytotoxicity against human A549 cells after 48 hrs by MTT assay; format: functional, cell-based; settings: A549, 48 h
MDA-MB-231 = assay: Cytotoxicity against human MDA-MB-231 cells after 48 hrs by MTT assay; format: functional, cell-based; settings: MDA-MB-231, 48 h
A549 [2] = assay: Cell cycle arrest in human A549 cells assessed as accumulation at G0 phase at 2 uM after 24 hrs using propidium iodide staining by flow cytometer analysis (reference value: 0.56%); format: functional
A549 [3] = assay: Cell cycle arrest in human A549 cells assessed as accumulation at G1 phase at 2 uM after 24 hrs using propidium iodide staining by flow cytometer analysis (reference value: 80.03%); format: functional
A549 [4] = assay: Cell cycle arrest in human A549 cells assessed as accumulation at S phase at 2 uM after 24 hrs using propidium iodide staining by flow cytometer analysis (reference value: 5.43%); format: functional
A549 [5] = assay: Cell cycle arrest in human A549 cells assessed as accumulation at G2/M phase at 2 uM after 24 hrs using propidium iodide staining by flow cytometer analysis (reference value: 13.98%); format: functional
Tubulin (Homo sapiens) [6] = target: T1, Tubulin (Homo sapiens) (UniProt P68371+Q9H4B7+P0DPH7+P68366+Q13509+Q71U36+P04350+Q3ZCM7+P07437+P68363+Q9BQE3+Q6PEY2+Q13885+Q9BVA1+Q9BUF5); assay: Inhibition of tubulin polymerization in human A549 cells assessed as microtubule network at 2 uM after 24 hrs by immunofluorescence microscopy analysis; format: cell-based
Tubulin (Homo sapiens) [7] = target: T1, Tubulin (Homo sapiens); assay: Inhibition of gamma-tubulin in human A549 cells assessed as decrease in protein organization pattern at 2 uM after 24 hrs by immunofluorescence analysis; format: cell-based
Tubulin (Homo sapiens) [8] = target: T1, Tubulin (Homo sapiens); assay: Inhibition of tubulin (unknown origin) at 2 uM after 30 to 60 mins by HTS assay; format: protein-complex assay
Tubulin (Bos taurus) = Tubulin (Bos taurus) (UniProt Q6B856+Q862L2+Q862F3); assay: Displacement of [3H]-colchicine from purified bovine brain tubulin at 5 uM after 1 hr by scintillation proximity assay
A549 [9] = assay: Induction of apoptosis in human A549 cells assessed as increase of caspase-3 expression at 2 uM after 2 hrs by Western blot analysis; format: functional, cell-based

Compound	IC50 (A549 [1]) [nM]	IC50 (MDA-MB-231) [nM]	Activity (A549 [2]) [%]	Activity (A549 [3]) [%]	Activity (A549 [4]) [%]	Activity (A549 [5]) [%]	inhibition (Tubulin (Homo sapiens) [6])	inhibition (Tubulin (Homo sapiens) [7])	inhibition (Tubulin (Homo sapiens) [8])	inhibition (Tubulin (Bos taurus)) [%]	Activity (A549 [9])
COc1cc(C2=NOC(c3cc(OC)c(OC)c(OC)c3)C2)ccc1O (stereo unspecified)	2600	3600	1.42	65.98	4.25	27.86	–	–	–	–	–
COc1ccc(C2=NOC(COc3ccc(-c4nnnn4-c4cc(OC)c(OC)c(OC)c4)cc3N)C2)cc1O (stereo unspecified)	2130	3380	2.05	69.87	6.27	21.81	–	–	–	–	–
COc1ccc(/C=C\c2cc(OC)c(OC)c(OC)c2)cc1O [COMBRETASTATIN A4]	550	100	1.79	7.47	6.03	84.71	–	–	–	–	–
COc1cc(-n2nnnc2-c2ccc(OCC3CC(c4ccc(OC)c(OC)c4OC)=NO3)c(N)c2)cc(OC)c1OC (stereo unspecified)	2030	3540	1.08	73.18	5.4	20.34	–	–	–	–	–
COc1ccc(-c2nnnn2-c2cc(OC)c(OC)c(OC)c2)cc1N	2630	3170	1.05	72.31	3.47	23.1	–	–	–	–	–
COc1cc(C2=NOC(COc3ccc(-c4nnnn4-c4cc(OC)c(OC)c(OC)c4)cc3N)C2)ccc1O (stereo unspecified)	2010	3620	1.65	70.71	6.41	21.18	–	–	–	–	–
COc1ccc(F)c(C2=NOC(COc3ccc(-c4nnnn4-c4cc(OC)c(OC)c(OC)c4)cc3N)C2)c1 (stereo unspecified)	1510	2830	2.55	10.23	5.93	81.29	Active	Active	Active	90	Active
COc1cc(C2=NOC(COc3ccc(-c4nnnn4-c4cc(OC)c(OC)c(OC)c4)cc3N)C2)cc(OC)c1OC (stereo unspecified)	2060	3230	1.74	72.62	4.92	20.72	–	–	–	–	–
COc1ccc(C2=NOC(COc3ccc(-c4nnnn4-c4cc(OC)c(OC)c(OC)c4)cc3N)C2)cc1N (stereo unspecified)	2080	3000	1.68	75.87	5.42	17.03	–	–	–	–	–
COc1ccc(C2=NOC(COc3ccc(-c4nnnn4-c4cc(OC)c(OC)c(OC)c4)cc3N)C2)cc1[N+](=O)[O-] (stereo unspecified)	2220	3560	1.84	74.79	5.29	18.08	–	–	–	–	–
COc1ccc(OC)c(C2=NOC(COc3ccc(-c4nnnn4-c4cc(OC)c(OC)c(OC)c4)cc3N)C2)c1 (stereo unspecified)	1930	3500	0.95	75.39	5.02	18.63	–	–	–	–	–
COc1cc(-n2nnnc2-c2ccc(OCC3CC(c4ccc(C(F)(F)F)cc4)=NO3)c(N)c2)cc(OC)c1OC (stereo unspecified)	1220	1750	7.14	43.08	4.17	45.61	–	–	–	–	–
COc1cc(-n2nnnc2-c2ccc(OCC3CC(c4ccccc4F)=NO3)c(N)c2)cc(OC)c1OC (stereo unspecified)	1490	2400	3.19	11.34	6.04	79.42	Active	Active	Active	92	Active
COc1ccc(C2=NOC(COc3ccc(-c4nnnn4-c4cc(OC)c(OC)c(OC)c4)cc3N)C2)cc1OC (stereo unspecified)	2520	3570	1.44	73.08	5.31	20.18	–	–	–	–	–
COc1cc(-n2nnnc2-c2ccc(OCC3CC(c4cccc(Cl)c4)=NO3)c(N)c2)cc(OC)c1OC (stereo unspecified)	1340	2180	6.83	49.34	5.53	38.3	–	–	–	–	–
CC(=O)O[C@H]1C(=O)[C@@]2(C)[C@H]([C@H](OC(=O)c3ccccc3)[C@]3(O)C[C@H](OC(=O)[C@H](O)[C@@H](NC(=O)c4ccccc4)c4ccccc4)C(C)=C1C3(C)C)[C@]1(OC(C)=O)CO[C@@H]1C[C@@H]2O	–	–	–	–	–	–	–	–	–	20	–
